Measurements from US10238661B2, “Fused, spirocyclic heteroaromatic compounds for the treatment of bacterial infections” (priority 2014, dated 2019).
Values after ≈ are worked out from the molar mass of the structure shown. Read-outs that look alike come from different tables or passages of the source.

Key:
[1] = tested on: Francisella tularensis; test: microbe, parasite or virus in culture; type: cell-based
[2] = tested on: Bacillus anthracis; test: microbe, parasite or virus in culture; type: cell-based
[3] = tested on: Mycoplasma pneumoniae; conditions: Mycoplasma pneumoniae ATCC 29342; CLSI M43-A acceptable QC range; cited from earlier work
[4] = tested on: Ureaplasma species; conditions: Ureaplasma urealyticum ATCC 33175; CLSI M43-A acceptable QC range; cited from earlier work
[5] = tested on: Mycoplasma genitalium; test: microbe, parasite or virus in culture; type: cell-based; conditions: for MIC: Mycoplasmoides genitalium
[6] = tested on: Mycoplasma pneumoniae; test: Broth microdilution MIC assay (CLSI M43-A), M. pneumoniae; type: cell-based; conditions: for MIC50 / MIC90 / MIC Range: M. pneumoniae isolates, n = 12
[7] = tested on: Mycoplasma hominis; test: microbe, parasite or virus in culture; type: cell-based; conditions: for MIC50 / MIC90: Metamycoplasma hominis
[8] = tested on: Ureaplasma species; test: microbe, parasite or virus in culture; type: cell-based, Ureaplasma urealyticum, Ureaplasma parvum; conditions: for MIC50 / MIC90 / MIC: Ureaplasma; for MIC: ATCC33175
[9] = tested on: Yersinia pestis; test: microbe, parasite or virus in culture; type: cell-based
[10] = tested on: Brucella melitensis; test: microbe, parasite or virus in culture; type: cell-based
[11] = tested on: Brucella suis; test: microbe, parasite or virus in culture; type: cell-based
[12] = M. pneumoniae M-129 QC Strain ATCC 29342-B7, read-out: MIC
[13] = M. pneumoniae isolate 51494, read-out: MIC
[14] = M. pneumoniae isolate 53706, read-out: MIC
[15] = M. pneumoniae isolate 53938, read-out: MIC
[16] = M. pneumoniae isolate 54484, macrolide-resistant, read-out: MIC
[17] = M. pneumoniae isolate 54506, macrolide-resistant, read-out: MIC
[18] = M. pneumoniae isolate 55246, read-out: MIC
[19] = M. pneumoniae isolate 55612, read-out: MIC
[20] = M. pneumoniae isolate 57807, read-out: MIC
[21] = M. pneumoniae isolate 58188, read-out: MIC
[22] = M. pneumoniae isolate 58772, read-out: MIC
[23] = M. pneumoniae isolate 59597, read-out: MIC
[24] = M. pneumoniae isolate 59598, read-out: MIC

O=C(N[C@H](CO)[C@H](O)c1ccc([N+](=O)[O-])cc1)C(Cl)Cl [Chloramphenicol]
MIC [1]: 1 µg/mL (≈ 3.09 µM) | MIC ([1]; Francisella tularensis): 2 µg/mL (≈ 6.19 µM) | MIC [2]: 4 µg/mL (≈ 12.4 µM) | MIC ([2]; Bacillus anthracis): 8 µg/mL (≈ 24.8 µM)

CC[C@H]1OC(=O)[C@H](C)[C@@H](O[C@H]2C[C@@](C)(OC)[C@@H](O)[C@H](C)O2)[C@H](C)[C@@H](O[C@@H]2O[C@H](C)C[C@H](N(C)C)[C@H]2O)[C@](C)(O)C[C@@H](C)C(=O)[C@H](C)[C@@H](O)[C@]1(C)O [Erythromycin]
MIC Limits for Quality Control Strain [3]: 0.004 to 0.063 µg/mL | MIC Limits for Quality Control Strain [4]: 1 to 8 µg/mL

CC[C@H]1OC(=O)[C@H](C)[C@@H](O[C@H]2C[C@@](C)(OC)[C@@H](O)[C@H](C)O2)[C@H](C)[C@@H](O[C@@H]2O[C@H](C)C[C@H](N(C)C)[C@H]2O)[C@](C)(O)C[C@@H](C)CN(C)[C@H](C)[C@@H](O)[C@]1(C)O [Azithromycin]
MIC Range [5]: <0.001 µg/mL | MIC [5]: < 0.001 µg/mL | MIC ([5]; ATCC33530): < 0.001 µg/mL | MIC ([5]; ATCC49895): < 0.001 µg/mL | MIC ([5]; ATCC49899): < 0.001 µg/mL | MIC [6, 12]: < 0.001 µg/mL | MIC [6, 13]: < 0.001 µg/mL | MIC [6, 14]: < 0.001 µg/mL | MIC [6, 15]: < 0.001 µg/mL | MIC [6, 16]: 32 µg/mL (≈ 42.7 µM) | MIC [6, 17]: 16 µg/mL (≈ 21.4 µM) | MIC [6, 18]: < 0.001 µg/mL | MIC [6, 19]: < 0.001 µg/mL | MIC [6, 20]: < 0.001 µg/mL | MIC [6, 21]: < 0.001 µg/mL | MIC [6, 22]: < 0.001 µg/mL | MIC [6, 23]: < 0.001 µg/mL | MIC [6, 24]: < 0.001 µg/mL | MIC50 [6]: < 0.001 µg/mL | MIC90 [6]: 16 µg/mL (≈ 21.4 µM) | MIC Range [6]: <0.001-32 ^ μg/mL | MIC ([6]; most M. pneumoniae isolates, read-out: MICs of most isolates): < 0.001 µg/mL | MICs of two macrolide-resistant strains ([6]; two M. pneumoniae strains with mutations in 23S ribosomal RNA): 32 µg/mL | MIC ([6]; two M. pneumoniae strains with mutations in 23S ribosomal RNA, read-out: MICs of two macrolide-resistant strains): 16 µg/mL (≈ 21.4 µM) | MIC Range [7]: 1 to 8 µg/mL | MIC50 [7]: 4 µg/mL (≈ 5.34 µM) | MIC90 [7]: 4 µg/mL (≈ 5.34 µM) | MIC Range [8]: 1 to 32 µg/mL | MIC50 [8]: 2 µg/mL (≈ 2.67 µM) | MIC90 [8]: 4 µg/mL (≈ 5.34 µM) | MIC [8]: 2 µg/mL (≈ 2.67 µM) | MIC Limits for Quality Control Strain [4]: 0.5 to 8 µg/mL

C[C@H]1c2cccc(O)c2C(=O)C2=C(O)[C@]3(O)C(=O)C(C(N)=O)=C(O)[C@@H](N(C)C)[C@@H]3[C@@H](O)[C@@H]21 [Doxycycline]
MIC Range [5]: 0.25 to 1 µg/mL | MIC [5]: 1 µg/mL (≈ 2.25 µM) | MIC ([5]; ATCC33530): 0.25 µg/mL (≈ 0.563 µM) | MIC ([5]; ATCC49895): 0.25 µg/mL (≈ 0.563 µM) | MIC ([5]; ATCC49899): 0.5 µg/mL (≈ 1.13 µM) | MIC [6, 12]: 0.5 µg/mL (≈ 1.13 µM) | MIC [6, 13]: 0.25 µg/mL (≈ 0.563 µM) | MIC [6, 14]: 0.25 µg/mL (≈ 0.563 µM) | MIC [6, 15]: 0.25 µg/mL (≈ 0.563 µM) | MIC [6, 16]: 0.25 µg/mL (≈ 0.563 µM) | MIC [6, 17]: 0.25 µg/mL (≈ 0.563 µM) | MIC [6, 18]: 0.25 µg/mL (≈ 0.563 µM) | MIC [6, 19]: 0.25 µg/mL (≈ 0.563 µM) | MIC [6, 20]: 0.25 µg/mL (≈ 0.563 µM) | MIC [6, 21]: 0.125 µg/mL (≈ 0.281 µM) | MIC [6, 22]: 0.5 µg/mL (≈ 1.13 µM) | MIC [6, 23]: 0.25 µg/mL (≈ 0.563 µM) | MIC [6, 24]: 0.25 µg/mL (≈ 0.563 µM) | MIC50 [6]: 0.25 µg/mL (≈ 0.563 µM) | MIC90 [6]: 0.25 µg/mL (≈ 0.563 µM) | MIC Range [6]: 0.125 to 0.5 µg/mL | MIC Range [7]: 0.016 to 4 µg/mL | MICs for isolates with tetM [7]: 4 µg/mL | MICs for isolates without tetM [7]: 0.016 to 0.063 µg/mL | MIC50 [7]: 0.032 µg/mL (≈ 0.072 µM) | MIC90 [7]: 4 µg/mL (≈ 9 µM) | MIC90 activity relative to Compound 1 (fold more active) [8]: 8 fold | MIC Range [8]: 0.016 to 8 µg/mL | MIC range for isolates containing tetM [8]: 4 to 8 µg/mL | MIC50 [8]: 0.125 µg/mL (≈ 0.281 µM) | MIC90 [8]: 8 µg/mL (≈ 18 µM) | MIC [8]: 8 µg/mL (≈ 18 µM) | MIC90 ([8]; read-out: MIC90 for doxycycline-susceptible organisms): 0.125 µg/mL (≈ 0.281 µM) | MIC [9]: 1 µg/mL (≈ 2.25 µM) | MIC ([9]; Yersinia pestis): 0.5 µg/mL (≈ 1.13 µM) | MIC ([2]; Bacillus anthracis): ≤ 0.031 µg/mL | MIC [10]: 0.125 µg/mL (≈ 0.281 µM) | MIC ([10]; Brucella melitensis): 0.25 µg/mL (≈ 0.563 µM) | MIC [11]: 0.125 µg/mL (≈ 0.281 µM) | MIC ([11]; Brucella suis): 0.063 µg/mL (≈ 0.142 µM)
